Results on seven substances are retold here after US20030027218A1, “PEPTIDES PROMOTING THE ACTIVATION OF LATENT TGF-BETA AND METHOD FOR SCREENING TGF-BETA ACTIVITY REGULATORS” (priority 1997, published 2003).

The test system of test [1] is bovine aortic endothelial cells (BAEC). The test is described as follows: Degree of binding of 125I-LLTGF-β to bovine aortic endothelial cells (radioactivity). In kind it is cell-based. To be noted: test compound 100 μg/ml.
Test [2] concerns bovine capillary endothelial cells (BCEC). As to the kind of experiment: Degree of binding of 125I-LLTGF-β to bovine capillary endothelial cells (radioactivity). To be noted: for Radioactivity (cpm), n = 4: BCEC, 2 ng/ml 125I-LLTGF-β, 4° C. 3 hours. In kind it is cell-based. On the procedure:
LLTGF-β isolated and purified from human platelets by the method of Okada, et al. [Journal of Biochemistry, 106, 304 (1989)] was ^125I-labeled according to the chloramine T method [Molecular & Cellular Biology, 2, 599 (1982)] in the following manner.
To 2 μg of LLTGF-β were added 25 μl of 1 M K-phosphate buffer (pH 7.5), 37 MBq of Na-^125I (DuPont NEN) and 10 μl of chloramine-T (0.5 mg/100 μl in 0.05 MK-phos. buffer, Wako Pure Chemical Industries, Ltd.), followed by stirring at room temperature for 40 seconds. After 15 μl of Na2S2O5 (1 mg/100 μl in 0.05 M K-phos. buffer) was added, the mixture was stirred at room temperature for 5 seconds, followed by addition of 100 μl of an aqueous solution of tyrosine (1 mg/ml). The reaction mixture was applied to a Sephadex G25 column and the eluate was taken in 500 μl fractions. Each fraction was subjected to measurement of radioactivity using a γ-counter (ARC-2000, Aloka Co., Ltd.). The fractions containing labeled protein were selected for use in the experiment.
The cells to be used in the experiment were obtained according to the method of Sato, et al. [Journal of Cell Biology, 123, 1249 (1993)]. Bovine vascular smooth muscle cells (BSMC) and porcine vascular smooth muscle cells (PSMC) were isolated from bovine aorta and porcine aorta, respectively, and cultured by the explant method [Journal of Cell Biology, 50, 172 (1971)]. Bovine capillary endothelial cells (BCEC) were isolated from bovine adrenal capillary and cultured. Bovine aortic endothelial cells (BAEC) were isolated from bovine aortic and cultured.
The following procedure was carried out according to the method of Sato, et al. [Journal of Cell Biology, 123, 1249 (1993)].
BSMC, PSMC and BCEC isolated and cultured in the above-described manner were respectively put into 35 mm dishes in an amount of 4×10^4 cells/dish. On the next day, the medium was replaced by Dulbecco's Modified Eagle's Medium (DMEM, Nissui Pharmaceutical Co.) containing 0.1% bovine serum albumin (BSA), followed by incubation for 5 hours. After the cells were washed with 2 ml of phosphate-buffered saline containing 0.1 g/l each of MgCl2.6H2O and CaCl2 [hereinafter sometimes referred to as PBS(+); phosphate-buffered saline containing neither MgCl2.6H2O nor CaCl2 is referred to as PBS (−)], the medium was replaced by 1 ml of ice-cold DMEM containing 0.1% BSA, 2 ng/ml ^125I-LLTGF-β and a test compound, followed by incubation at 4° C. for 3 hours. […] After being washed three times with 2 ml of ice-cold PBS(+), the cells were lysed with 900 μl of 0.5% Triton X-100 (room temperature, 0.5-1 hour), and 800 μl of the lysate was subjected to measurement of radioactivity using a γ-counter.

The subject of test [3] is active TGF-β. As to the kind of experiment: Determination of active TGF-β by luciferase assay (BCEC culture supernatant on MLEC carrying PAI-1 promoter luciferase). Type of test: cell-based, bovine. As to conditions: BCEC incubated with test compound 24 hours. On the procedure:
The amount of active TGF-β was determined by measuring the luminescence of mink lung epithelial cells (MLEC) carrying the luciferase gene introduced downstream of the PAI-1 promoter by luciferase assay system (Promega) according to the method of Abe, et al. [Analytical Biochemistry, 216, 276 (1994)] as described below.
BCEC were cultured in a 24-well plate to make a confluent layer and then the medium was replaced by DMEM containing 0.1% BSA. After 6 hours, the cells were scraped reticulately with a comb and the remaining cells were washed with PBS (−) , followed by incubation in DMEM containing 0.1% BSA and a test compound for 24 hours. The resulting culture supernatant was taken as a sample. Six hours before the sampling of this culture supernatant, the above-mentioned MLEC were put into wells of a 96-well plate in an amount of 2.8×10^4 cells/well. After the cells were cultured in DMEM containing 10% fetal calf serum (FCS) for 6 hours, the medium was replaced by the above culture supernatant sample, followed by incubation for 16 hours. The cells were washed twice with PBS (−) and then subjected to measurement of active TGF-β concentration by lucuferase assay system.

The test system of test [4] is bovine capillary endothelial cells (BCEC). The test is described as follows: Migration of bovine vascular endothelial cells (release of active TGF-β from latent TGF-β). Type of test: cell-based. As to conditions: 24 hours, 10 /μg/ml. On the procedure:
The following procedure was carried out according to the method of Sato, et al. [Journal of Cell Biology, 123, 1249 (1993)]. were scraped with a razor, the remaining cells were washed with PBS (−), followed by incubation in DMEM containing 0.1% BSA and a test compound. After 24 hours, the number of the cells which migrated in four fileds of a microscope (IX70, Olympus) was counted for each dish. The test compound was added in the same manner as in Test Example 1. The migration of cells was inhibited and the release of active TGF-β from latent TGF-β was promoted by Compounds 3 and 5 to 9 at a concentration of 50 μg/ml.

Setting [5] is: test compound 100 μg/ml, vehicle 416.8 ± 89.6.
Where [6] appears, read: concentrations indicated in FIG. 6.

Positions of bridges follow the written chain, without caps; N, C: chain ends. *: point of attachment. Biotin = O=C1N[C@H]2[C@H](CS[C@H]2CCCCC(=O)*)N1

On to “Biotinyl-cyclo(Cys-Val-Leu-Leu-Ser-Arg-Ala-Glu-Leu-Arg-Leu-Leu-Arg-Arg-Leu-Lys-Leu-Lys-Cys)-OH (Biotin-CVLLSRAELRLLRRLKLKC-OH; disulfide 1-19; SMILES CC(C)C[C@@H]1NC(=O)[C@H](CCC(=O)O)NC(=O)[C@H](C)NC(=O)[C@H](CCCNC(=N)N)NC(=O)[C@H](CO)NC(=O)[C@H](CC(C)C)NC(=O)[C@H](CC(C)C)NC(=O)[C@H](C(C)C)NC(=O)[C@@H](NC(=O)CCCC[C@@H]2SC[C@@H]3NC(=O)N[C@@H]32)CSSC[C@@H](C(=O)O)NC(=O)[C@H](CCCCN)NC(=O)[C@H](CC(C)C)NC(=O)[C@H](CCCCN)NC(=O)[C@H](CC(C)C)NC(=O)[C@H](CCCNC(=N)N)NC(=O)[C@H](CCCNC(=N)N)NC(=O)[C@H](CC(C)C)NC(=O)[C@H](CC(C)C)NC(=O)[C@H](CCCNC(=N)N)NC1=O) [Compound 13]”, for which the “Radioactivity (cpm), n = 4” value in test [1] (Table 5, vehicle 1076.5 ± 12.0) came to 4704.0 ± 939.9 cpm. For “Biotinyl-Gly-Arg-Arg-Leu-Lys-Leu-Lys-Val-Glu-Gln-His-Val-Glu-Leu-Tyr-Gln-Lys-Tyr-Ser-Asn-Asn-Ser-Trp-Arg-OH (Biotin-GRRLKLKVEQHVELYQKYSNNSWR-OH; SMILES CC(C)C[C@H](NC(=O)[C@H](CCCNC(=N)N)NC(=O)[C@H](CCCNC(=N)N)NC(=O)CNC(=O)CCCC[C@@H]1SC[C@@H]2NC(=O)N[C@@H]21)C(=O)N[C@@H](CCCCN)C(=O)N[C@@H](CC(C)C)C(=O)N[C@@H](CCCCN)C(=O)N[C@H](C(=O)N[C@@H](CCC(=O)O)C(=O)N[C@@H](CCC(N)=O)C(=O)N[C@@H](Cc1c[nH]cn1)C(=O)N[C@H](C(=O)N[C@@H](CCC(=O)O)C(=O)N[C@@H](CC(C)C)C(=O)N[C@@H](Cc1ccc(O)cc1)C(=O)N[C@@H](CCC(N)=O)C(=O)N[C@@H](CCCCN)C(=O)N[C@@H](Cc1ccc(O)cc1)C(=O)N[C@@H](CO)C(=O)N[C@@H](CC(N)=O)C(=O)N[C@@H](CC(N)=O)C(=O)N[C@@H](CO)C(=O)N[C@@H](Cc1c[nH]c2ccccc12)C(=O)N[C@@H](CCCNC(=N)N)C(=O)O)C(C)C)C(C)C) [Compound 16]”, in test [1] (Table 6, vehicle 792.0 ± 107.0), the “Radioactivity (cpm), n = 4” value is 10495.0 ± 803.0 cpm. “H-Leu-Lys-Leu-Lys-Val-Glu-Gln-His-Val-Glu-Leu-Tyr-Gln-Lys-Tyr-Ser-Asn-Asn-Ser-Trp-Arg-OH (H-LKLKVEQHVELYQKYSNNSWR-OH) [Compound 15]”: the “Radioactivity (cpm), n = 4” value in test [2] (setting [5]) is 5621.1 ± 889.2 cpm. Turning to “H-cyclo(Cys-Val-Leu-Leu-Ser-Arg-Ala-Glu-Leu-Arg-Leu-Leu-Arg-Arg-Leu-Lys-Leu-Lys-Cys)-OH (H-CVLLSRAELRLLRRLKLKC-OH; disulfide 1-19; SMILES CC(C)C[C@@H]1NC(=O)[C@H](CCC(=O)O)NC(=O)[C@H](C)NC(=O)[C@H](CCCNC(=N)N)NC(=O)[C@H](CO)NC(=O)[C@H](CC(C)C)NC(=O)[C@H](CC(C)C)NC(=O)[C@H](C(C)C)NC(=O)[C@@H](N)CSSC[C@@H](C(=O)O)NC(=O)[C@H](CCCCN)NC(=O)[C@H](CC(C)C)NC(=O)[C@H](CCCCN)NC(=O)[C@H](CC(C)C)NC(=O)[C@H](CCCNC(=N)N)NC(=O)[C@H](CCCNC(=N)N)NC(=O)[C@H](CC(C)C)NC(=O)[C@H](CC(C)C)NC(=O)[C@H](CCCNC(=N)N)NC1=O) [Compound 12]”, the “Radioactivity (cpm), n = 4” value in test [2] (test compound 30 μg/ml, vehicle 163.1 ± 28.3) stood at 2739.9 ± 182.8 cpm. Besides, the “degree of binding of TGF-β to cells” value in test [2] (concentration of 30 μg/ml, BCEC (Table 3)) is “increased”. In the case of “H-Leu-Ser-Thr-Ser-Lys-Thr-Ile-Asp-Met-Glu-Leu-Val-Lys-Arg-Lys-Arg-Ile-Glu-Ala-Ile-Arg-Gly-Cys-OH (H-LSTSKTIDMELVKRKRIEAIRGC-OH) [Compound 3]”, the “release of active TGF-β (luciferase assay)” value in test [3] (setting [6]) is recorded as “Active TGF-β was released”. Consider “H-Leu-Ser-Thr-Cys-Lys-Thr-Ile-Asp-Met-Glu-Leu-Val-Lys-Arg-Lys-Arg-OH (H-LSTCKTIDMELVKRKR-OH) [Compound 14]”, for which the “Radioactivity (cpm), n = 4” value in test [2] (setting [5]) is 3369.9 ± 166.8 cpm. “H-cyclo(Cys-Leu-Ser-Thr-Ser-Lys-Thr-Ile-Asp-Met-Glu-Leu-Val-Lys-Arg-Lys-Arg-Ile-Glu-Ala-Ile-Arg-Gly-Cys)-OH (H-CLSTSKTIDMELVKRKRIEAIRGC-OH; disulfide 1-24; SMILES CC[C@H](C)[C@@H]1NC(=O)[C@H](C)NC(=O)[C@H](CCC(=O)O)NC(=O)[C@H]([C@@H](C)CC)NC(=O)[C@H](CCCNC(=N)N)NC(=O)[C@H](CCCCN)NC(=O)[C@H](CCCNC(=N)N)NC(=O)[C@H](CCCCN)NC(=O)[C@H](C(C)C)NC(=O)[C@H](CC(C)C)NC(=O)[C@H](CCC(=O)O)NC(=O)[C@H](CCSC)NC(=O)[C@H](CC(=O)O)NC(=O)[C@H]([C@@H](C)CC)NC(=O)[C@H]([C@@H](C)O)NC(=O)[C@H](CCCCN)NC(=O)[C@H](CO)NC(=O)[C@H]([C@@H](C)O)NC(=O)[C@H](CO)NC(=O)[C@H](CC(C)C)NC(=O)[C@@H](N)CSSC[C@@H](C(=O)O)NC(=O)CNC(=O)[C@H](CCCNC(=N)N)NC1=O) [Compound 10]”: the migration inhibitory effect entry in test [4] is “showed the migration inhibitory effect”. Further, the figures for the “release of active TGF-β (luciferase assay)” value in test [3] (concentration of 10 μg/ml) and in test [3] (setting [6]) were “remarkable effect” and “Active TGF-β was released”, respectively.
